From paper PMC6650409, “Modeling the binding of diverse ligands within the Ah receptor ligand binding domain” (Scientific Reports, 2019)
Positions count from the first letter of the chain named. Like-named read-outs stand apart in the source and are kept apart here.

Assays:
[1] = biological target: T1, P291L AhR (Mus musculus, UniProt P30561, P291L); assay: [3H]TCDD competitive ligand binding, P291L mutant AhR; conditions: for change of relative binding affinity versus wild-type AhR: P291L substitution, in words
T1 construct: made in house; host or cells: in vitro, Promega TNT Quick rabbit reticulocyte lysate
T1 sequence (P30561 10-848 P291L): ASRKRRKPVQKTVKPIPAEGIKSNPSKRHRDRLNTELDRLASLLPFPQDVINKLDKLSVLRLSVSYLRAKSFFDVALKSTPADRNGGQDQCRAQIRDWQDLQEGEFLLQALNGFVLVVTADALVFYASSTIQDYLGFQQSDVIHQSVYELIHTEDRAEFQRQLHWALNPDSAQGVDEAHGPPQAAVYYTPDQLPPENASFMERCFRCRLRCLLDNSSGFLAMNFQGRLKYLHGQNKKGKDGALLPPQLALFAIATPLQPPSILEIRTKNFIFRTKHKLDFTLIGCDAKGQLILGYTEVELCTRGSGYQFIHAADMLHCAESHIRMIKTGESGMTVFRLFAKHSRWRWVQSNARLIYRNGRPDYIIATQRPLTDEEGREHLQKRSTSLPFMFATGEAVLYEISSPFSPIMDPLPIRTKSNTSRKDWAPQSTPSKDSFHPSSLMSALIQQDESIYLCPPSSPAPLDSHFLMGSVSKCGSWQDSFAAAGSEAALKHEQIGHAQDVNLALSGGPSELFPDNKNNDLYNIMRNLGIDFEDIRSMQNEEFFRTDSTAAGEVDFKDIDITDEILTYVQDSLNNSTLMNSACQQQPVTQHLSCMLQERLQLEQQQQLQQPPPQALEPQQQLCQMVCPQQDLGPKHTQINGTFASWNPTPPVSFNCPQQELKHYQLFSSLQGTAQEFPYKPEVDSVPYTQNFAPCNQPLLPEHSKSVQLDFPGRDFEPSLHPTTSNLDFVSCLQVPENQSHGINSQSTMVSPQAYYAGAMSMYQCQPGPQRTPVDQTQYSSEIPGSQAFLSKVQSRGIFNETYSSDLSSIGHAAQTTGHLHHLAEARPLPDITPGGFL
Procedure: (§1) The mouse AhR (mAhR) and ARNT (mARNT) expression plasmids, mβAhR/pcDNA3 and mβArnt/pcDNA3, have been previously described. Point mutations of mβAhR/pcDNA3 were carried out using the QuikChange Lightning Mutagenesis Kit (Agilent Technologies) and all constructs were verified by sequencing.
(§2) [^3H]TCDD specific binding to wild-type or mutant mAhRs synthesized in vitro using the Promega TNT Quick coupled transcription/translation rabbit reticulocyte lysate kit (Madison, WI) was carried out as previously described. [^3H]TCDD specific binding was determined by subtracting the amount of [^3H]TCDD bound to unprogrammed lysate (nonspecific binding) from the total amount of [^3H]TCDD binding to lysate containing in vitro expressed AhR. The amount of [^3H]TCDD specific binding remaining in the presence of the indicated competitor chemical was expressed as a percent of the total [^3H]TCDD specific binding. The relative binding affinity (IC50) of each chemical was determined from concentration-dependent competitive inhibition curves obtained using [^3H]TCDD and increasing concentrations of each test chemical and the mean IC50 value was determined using three-parameter non-linear regression.

[2] = biological target: T2, C327A mutant AhR (Mus musculus, UniProt P30561, C327A); assay: [3H]TCDD competitive ligand binding, C327A mutant AhR; conditions: for change of relative binding affinity versus wild-type AhR: C327A mutation, in words; for IC50: Table S6, AhR mutant C327A
T2 construct: made in house; host or cells: in vitro, Promega TNT Quick rabbit reticulocyte lysate
T2 sequence (P30561 10-848 C327A): T1 sequence (P30561 10-848 P291L) with L282P, C318A
Procedure: as §1, §2

[3] = Table S6, AhR mutant P291L, read-out: IC50

Structure (SMILES): Clc1cc2oc3cc(Cl)c(Cl)cc3c2cc1Cl [TCDF, 2,3,7,8-tetrachlorodibenzofuran]
- IC50 ([1]; P291L AhR, read-out: relative affinity (IC50)): 0.04 nM
- change of relative binding affinity versus wild-type AhR [1]: dramatically enhanced
- IC50 [1, 3]: 0.0435 nM

Structure (SMILES): c1ccc2c(c1)cc1ccc3cccc4ccc2c1c34 [BaP, Benzo(a)pyrene]
- change of relative binding affinity versus wild-type AhR [1]: not statistically significant
- IC50 [1, 3]: 604 nM

Structure (SMILES): O=c1cc(-c2ccccc2)oc2ccc3ccccc3c12 [BNF]
- change of relative binding affinity versus wild-type AhR [2]: significantly decreased
- IC50 ([2]; read-out: IC50): 40.5 nM

Structure (SMILES): O=Cc1c2[nH]c3ccccc3c2cc2[nH]c3ccccc3c12 [FICZ, 6-formylindolo[3,2-b]carbazole]
- change of relative binding affinity versus wild-type AhR [2]: no significant effect
- IC50 ([2]; read-out: IC50): 4.32 nM

Structure (SMILES): c1ccc2c(c1)ccc1cc3c(ccc4ccccc43)cc12 [DBA, dibenz(a,h)anthracene]
- change of relative binding affinity versus wild-type AhR [2]: no significant effect
- IC50 ([2]; read-out: -LogIC50 (converted)): 14.8 nM
- IC50 ([2]; read-out: IC50): 14.6 nM
